Source: patent publication US9211336B2, “Antioxidant stabilized pharmaceutical formulations comprising antineoplastic compounds” (Hikma Pharmaceuticals, priority 2013, dated 2015)

Columns and labels:
[1] = solid powder, 1 month 40° C./75% RH; weight percentage
Experimental: In the tested formulations, the weight percentages of certain degradation products were measured.

[2] = Stability study, effect of pH: temozolomide solutions in various buffers; assay type: physicochemical
[3] = Effect of controlled preparation temperature on dissolution of temozolomide
[4] = only stable in acidic conditions; cited from earlier work

## Cn1nnc2c(C(N)=O)ncn2c1=O [Temozolomide, 3,4-dihydro-3-methyl-4-oxoimidazo[5,1-d]-as-tetrazine-8-carboxamide]
[1]
  Dacarbazine-related compound A: 8.4%
  Max. Unknown: 0.22%
[2]; 0.1N HCl pH = 1.1
  Stability after 1 hr (temozolomide as % of amount originally added): 101.7%
  Stability after 5 hr: 100.2%
  Stability after 6 hr: 99.8%
[2]; Acetate Buffer pH = 4.5
  Stability after 1 hr (temozolomide as % of amount originally added): 99.2%
  Stability after 5 hr: 98.1%
  Stability after 6 hr: 98.2%
[2]; Hydrochloride Buffer pH = 2.2
  Stability after 1 hr (temozolomide as % of amount originally added): 99.1%
  Stability after 5 hr: 98.6%
  Stability after 6 hr: 99.0%
[2]; Phosphate Buffer pH = 6.8
  Stability after 5 min: 100.1%
  Stability after 10 min: 99.8%
  Stability after 15 min: 99.0%
  Stability after 30 min: 98.0%
[2]; Phosphate Buffer pH = 7.5
  Stability after 5 min: 99.4%
  Stability after 10 min: 99.0%
  Stability after 15 min: 97.8%
  Stability after 30 min: 90.5%
[2]; Water
  Stability after 5 min: 99.9%
  Stability after 10 min: 99.6%
  Stability after 15 min: 98.8%
  Stability after 30 min: 97.6%
[3]; Prep Temp 10 ° C., About 3 hrs
  Observation (dissolution of temozolomide): Temozolomide did not dissolve
[3]; Prep Temp 15 ° C., About 2 hrs
  Observation (dissolution of temozolomide): Temozolomide did not dissolve
[3]; Prep Temp 18 ° C.
  Observation (dissolution of temozolomide): Temozolomide dissolved
  Time (to dissolve): About 0.5 to 0.75 hrs
[3]; Prep Temp 19 ° C.
  Observation (dissolution of temozolomide): Temozolomide dissolved
  Time (to dissolve): About 0.5 to 0.75 hrs
[3]; Prep Temp 20 ° C.
  Observation (dissolution of temozolomide): Temozolomide dissolved
  Time (to dissolve): About 0.5 to 0.75 hrs
[3]; Prep Temp 24 ° C.
  Observation (dissolution of temozolomide): Temozolomide dissolved
  Time (to dissolve): About 0.5 to 0.75 hrs
[3]; Prep Temp 25 ° C.
  Observation (dissolution of temozolomide): Temozolomide dissolved
  Time (to dissolve): About 0.5 to 0.75 hrs
[4]
  pH at which stable: less than 5
